Source: patent US7109376B2, “Benzene and naphthylene derivatives and their use as UV screening agents” (DSM IP Assets B.V., priority 2001, dated 2006)

Assays:
[1] = solvent Crodamol DA (diisopropyladipate)
[2] = irradiated in high dilution with a Hg-lamp 150 W (Heraeus)
[3] = solvent Cétiol LC (Cocoyl cyprylate caprate)

Structure (SMILES) | solubility in Crodamol DA [1] | photostability [2] | mixability with conventional cosmetic solvents | solubility in Cétiol LC [3]
CCCCC=CC(C)c1cc(C)cc2nc(-c3ccc(-c4nc5cc(C)cc(C(C)C=CCCCC)c5o4)cc3)oc12 (stereo not shown) [Example 6, 1,4-bis-[2-(5-methyl-7-oct-3-en-2-yl-benzoxazol)-yl]-benzene] | 1.33% | photostable | – | –
CC(Cc1cccc2nc(-c3ccc(-c4nc5cccc(CC(C)C[Si](C)(C)O[Si](C)(C)C)c5o4)cc3)oc12)C[Si](C)(C)O[Si](C)(C)C (stereo not shown) [Example 3, 1,4-bis-[2-(7-{3-(1,1,3,3,3-pentamethyl-disiloxanyl)-1-isobutyl}-benzoxazol)-yl]-benzene] | 5.03% | photostable | – | –
CCCCC=CC(C)c1cc(C(C)(C)C)cc2nc(-c3ccc(-c4nc5cc(C(C)(C)C)cc(C(C)C=CCCCC)c5o4)cc3)oc12 (stereo not shown) [Example 8, 1,4-bis-[2-(5-tert.-butyl-7-oct-3-en-2-yl-benzoxazol)-yl]-benzene] | – | photostable | easily mixable | –
C=CCc1cc(C(C)(C)C)cc2nc(-c3ccc(-c4nc5cc(C(C)(C)C)cc(CC=C)c5o4)cc3)oc12 [Example 1, 1,4-bis-[2-(5-tert.-butyl-7-allyl-benzoxazol)-yl]-benzene] | – | photostable | – | 1.1%
CCCCCCC(C)c1cc(C(C)(C)C)cc2nc(-c3ccc(-c4nc5cc(C(C)(C)C)cc(C(C)CCCCCC)c5o4)cc3)oc12 (stereo not shown) [Example 11, 1,4-bis-[2-(5-tert.-butyl-7-oct-2-yl-benzoxazol)-yl]-benzene] | – | photostable | easily mixable | –
CC(C)(C)c1cc(CCC[Si](C)(C)O[Si](C)(C)C)c2oc(-c3ccc(-c4nc5cc(C(C)(C)C)cc(CCC[Si](C)(C)O[Si](C)(C)C)c5o4)cc3)nc2c1 [Example 2, 1,4-bis-[2-(5-tert.-butyl-7-{3-(1,1,3,3,3-pentamethyl-disiloxanyl)-1-propyl}-benzoxazol)-yl]-benzene] | – | photostable | – | 18%
CC(Cc1cc(C(C)(C)C)cc2nc(-c3ccc(-c4nc5cc(C(C)(C)C)cc(CC(C)C[Si](C)(O[Si](C)(C)C)O[Si](C)(C)C)c5o4)cc3)oc12)C[Si](C)(O[Si](C)(C)C)O[Si](C)(C)C (stereo not shown) [Example 5, 1,4-bis-[2-(5-tert.-butyl-7-{3-(1,3,3,3-tetramethyl-1-[(tri-methyl-silyl)-oxy]-disiloxanyl)-1-isobutyl}-benzoxazol)-yl]-benzene] | – | photostable | – | 12.3%
CCCCC=CC(C)c1cccc2nc(-c3ccc(-c4nc5cccc(C(C)C=CCCCC)c5o4)cc3)oc12 (stereo not shown) [Example 9, 1,4-bis-[2-(7-oct-3-en-2-yl-benzoxazol)-yl]-benzene] | – | photostable | – | 1.02%
